Laboratory results: paper PMC4824433, “A Carbapenem-Resistant Pseudomonas aeruginosa Isolate Harboring Two Copies of blaIMP-34 Encoding a Metallo-β-Lactamase” (PLoS ONE, 2016)
Values after ≈ are worked out from the molar mass of the structure shown.

Columns and labels:
P. aeruginosa NCGM1984 = system: T1, P. aeruginosa NCGM1984; test: microbe, parasite or virus in culture; parameters: CLSI microdilution susceptibility test, minimum inhibitory concentration of bacterial growth; settings: clinical isolate carrying two copies of blaIMP-34; for MIC: Pseudomonas aeruginosa, NCGM1984, read-out: MIC (μg/ml) / P. aeruginosa NCGM1984
T1 construct: NCGM1984 (clinical isolate, ST235, two chromosomal copies of blaIMP-34)

E. coli DH5α (pHSG398) = system: T2, E. coli DH5α (pHSG398); test: microbe, parasite or virus in culture; parameters: CLSI microdilution susceptibility test, minimum inhibitory concentration of bacterial growth; settings: Escherichia coli; empty vector control; read-out: MIC (μg/ml) / E. coli DH5α (pHSG398)
T2 construct: DH5α (pHSG398) empty vector control
Procedure: (§1) The ORFs of blaIMP-1 and blaIMP-34 were amplified by PCR using the primers EcoRI-IMP-1/34-F(5′-gggGAATTCatgagcaagttatctgtattc-3′; uppercase letters indicate an EcoRI digestion site) and PstI-IMP-1/34-R (5′-aaaCTGCAGttagttgcttggttttgatgg-3′; uppercase letters indicate a PstI digestion site). […] The plasmids were used to transform DH5α, and transformants were selected on LB agar containing 30 μg/mL of chloramphenicol, and their susceptibilities to various β-lactams were assayed. P. aeruginosa NCGM2.S1 harboring blaIMP-1 was used as a reference strain [12].

[1] = system: T3, E. coli DH5α (pHSG398/IMP-1); test: microbe, parasite or virus in culture; parameters: CLSI microdilution susceptibility test, minimum inhibitory concentration of bacterial growth; settings: Escherichia coli, read-out: MIC (μg/ml) / E. coli DH5α (pHSG398/IMP-1)
T3 construct: DH5α (pHSG398/IMP-1) transformant expressing blaIMP-1 from pHSG398
Procedure: as §1

[2] = system: CO/N=C(\C(=O)N[C@@H]1C(=O)N2C(C(=O)[O-])=C(C[N+]3(C)CCCC3)CS[C@H]12)c1csc(N)n1; test: purified protein; settings: 50 mM Tris-HCl pH 7.4, 5 μM Zn(NH3)2, 37°C
From the text: (§2) UV-visible spectrophotometry, initial rates, Lineweaver-Burk plots on IMP-1

[3] = system: C[C@@H](O)[C@H]1C(=O)N2C(C(=O)O)=C(SCCN=CN)C[C@H]12; test: purified protein; settings: 50 mM Tris-HCl pH 7.4, 5 μM Zn(NH3)2, 37°C
From the text: as §2

[4] = system: CC1=C(C(=O)O)N2C(=O)[C@@H](NC(=O)[C@H](N)C3=CCC=CC3)[C@H]2SC1; test: purified protein; settings: 50 mM Tris-HCl pH 7.4, 5 μM Zn(NH3)2, 37°C
From the text: as §2

[5] = system: CO/N=C(\C(=O)N[C@@H]1C(=O)N2C(C(=O)O)=C(COC(C)=O)CS[C@H]12)c1csc(N)n1; test: purified protein; settings: 50 mM Tris-HCl pH 7.4, 5 μM Zn(NH3)2, 37°C
From the text: as §2

[6] = system: CC1(C)S[C@@H]2[C@H](NC(=O)Cc3ccccc3)C(=O)N2[C@H]1C(=O)O; test: purified protein; settings: 50 mM Tris-HCl pH 7.4, 5 μM Zn(NH3)2, 37°C
From the text: as §2

[7] = system: CO[C@@]1(NC(=O)Cc2cccs2)C(=O)N2C(C(=O)O)=C(COC(N)=O)CS[C@@H]21; test: purified protein; settings: 50 mM Tris-HCl pH 7.4, 5 μM Zn(NH3)2, 37°C
From the text: as §2

[8] = system: CC(C)(O/N=C(\C(=O)N[C@@H]1C(=O)N2C(C(=O)[O-])=C(C[n+]3ccccc3)CS[C@H]12)c1csc(N)n1)C(=O)O; test: purified protein; settings: 50 mM Tris-HCl pH 7.4, 5 μM Zn(NH3)2, 37°C
From the text: as §2

[9] = system: CC1(C)S[C@@H]2[C@H](NC(=O)[C@H](N)c3ccccc3)C(=O)N2[C@H]1C(=O)O; test: purified protein; settings: 50 mM Tris-HCl pH 7.4, 5 μM Zn(NH3)2, 37°C
From the text: as §2

[10] = system: C[C@@H](O)[C@H]1C(=O)N2C(C(=O)O)=C(S[C@@H]3CN[C@H](C(=O)N(C)C)C3)[C@H](C)[C@H]12; test: purified protein; settings: 50 mM Tris-HCl pH 7.4, 5 μM Zn(NH3)2, 37°C
From the text: as §2

[11] = system: C[C@@H](O)[C@H]1C(=O)N2C(C(=O)O)=C(S[C@@H]3CN[C@H](CNS(N)(=O)=O)C3)[C@H](C)[C@H]12; test: purified protein; settings: 50 mM Tris-HCl pH 7.4, 5 μM Zn(NH3)2, 37°C
From the text: as §2

For `CC1(C)S[C@@H]2[C@H](NC(=O)[C@H](N)c3ccccc3)C(=O)N2[C@H]1C(=O)O` [Ampicillin], the MIC (P. aeruginosa NCGM1984) was greater than 1020 µg/mL, the MIC (E. coli DH5α (pHSG398)) was 2 µg/mL (≈ 5.72 µM) and the MIC [1] was 32 µg/mL (≈ 91.6 µM).

`C[C@H]1[C@H](NC(=O)/C(=N\OC(C)(C)C(=O)O)c2csc(N)n2)C(=O)N1S(=O)(=O)O` [Aztreonam] was tested, and the MIC (P. aeruginosa NCGM1984) was 64 µg/mL (≈ 147 µM), the MIC (E. coli DH5α (pHSG398)) was no more than 0.25 µg/mL and the MIC [1] was no more than 0.25 µg/mL.

Molecule `CO/N=C(\C(=O)N[C@@H]1C(=O)N2C(C(=O)[O-])=C(C[N+]3(C)CCCC3)CS[C@H]12)c1csc(N)n1` [Cefepime] has an MIC (P. aeruginosa NCGM1984) greater than 1020 µg/mL.

Molecule `CO/N=C(\C(=O)N[C@@H]1C(=O)N2C(C(=O)O)=C(COC(C)=O)CS[C@H]12)c1csc(N)n1` [Cefotaxime] has an MIC (P. aeruginosa NCGM1984) greater than 1020 µg/mL, an MIC (E. coli DH5α (pHSG398)) of no more than 0.25 µg/mL and an MIC [1] of 16 µg/mL (≈ 35.1 µM).

With `CO[C@@]1(NC(=O)Cc2cccs2)C(=O)N2C(C(=O)O)=C(COC(N)=O)CS[C@@H]21` [Cefoxitin] the MIC (P. aeruginosa NCGM1984) was greater than 1020 µg/mL, the MIC (E. coli DH5α (pHSG398)) was 2 µg/mL (≈ 4.68 µM) and the MIC [1] was 512 µg/mL (≈ 1200 µM).

With `CO/N=C(\C(=O)N[C@@H]1C(=O)N2C(C(=O)[O-])=C(C[n+]3ccn4ncccc43)CS[C@H]12)c1nsc(N)n1` [Cefozopran] the MIC (P. aeruginosa NCGM1984) was greater than 1020 µg/mL, the MIC (E. coli DH5α (pHSG398)) was no more than 0.25 µg/mL and the MIC [1] was 4 µg/mL (≈ 7.76 µM).

Molecule `CO/N=C(\C(=O)N[C@@H]1C(=O)N2C(C(=O)[O-])=C(C[n+]3cccc4c3CCC4)CS[C@H]12)c1csc(N)n1` [Cefpirome] has an MIC (P. aeruginosa NCGM1984) of 512 µg/mL (≈ 995 µM), an MIC (E. coli DH5α (pHSG398)) of no more than 0.25 µg/mL and an MIC [1] of 0.25 µg/mL (≈ 0.486 µM).

`CC(C)(O/N=C(\C(=O)N[C@@H]1C(=O)N2C(C(=O)[O-])=C(C[n+]3ccccc3)CS[C@H]12)c1csc(N)n1)C(=O)O` [Ceftazidime] was tested, and the “MIC (μg/ml) / P. aeruginosa NCGM1984” value (P. aeruginosa NCGM1984) was > 1,024 ug/mL, the MIC (E. coli DH5α (pHSG398)) was no more than 0.25 µg/mL and the MIC [1] was 512 µg/mL (≈ 937 µM).

`CO/N=C(\C(=O)N[C@@H]1C(=O)N2C(C(=O)O)=C(CSc3nc(=O)c(O)nn3C)CS[C@H]12)c1csc(N)n1` [Ceftriaxone] gave an MIC (P. aeruginosa NCGM1984) greater than 1020 µg/mL, an MIC (E. coli DH5α (pHSG398)) of no more than 0.25 µg/mL and an MIC [1] of 64 µg/mL (≈ 115 µM).

For `CO/N=C(\C(=O)N[C@@H]1C(=O)N2C(C(=O)O)=C(COC(N)=O)CS[C@H]12)c1ccco1` [Cefuroxime], the MIC (P. aeruginosa NCGM1984) was greater than 1020 µg/mL, the MIC (E. coli DH5α (pHSG398)) was 4 µg/mL (≈ 9.43 µM) and the MIC [1] was 256 µg/mL (≈ 603 µM).

In the case of `CC1=C(C(=O)O)N2C(=O)[C@@H](NC(=O)[C@H](N)C3=CCC=CC3)[C@H]2SC1` [Cephradine], the MIC (P. aeruginosa NCGM1984) is reported as greater than 1020 µg/mL, the MIC (E. coli DH5α (pHSG398)) is reported as 16 µg/mL (≈ 45.8 µM) and the MIC [1] is reported as 256 µg/mL (≈ 733 µM).

Molecule `C[C@@H](O)[C@H]1C(=O)N2C(C(=O)O)=C(S[C@@H]3CN[C@H](CNS(N)(=O)=O)C3)[C@H](C)[C@H]12` [Doripenem] has an MIC (P. aeruginosa NCGM1984) greater than 1020 µg/mL, an MIC (E. coli DH5α (pHSG398)) of no more than 0.25 µg/mL and an MIC [1] of 0.25 µg/mL (≈ 0.595 µM).

Molecule `C[C@@H](O)[C@H]1C(=O)N2C(C(=O)O)=C(SCCN=CN)C[C@H]12` [Imipenem] has an MIC (P. aeruginosa NCGM1984) of 512 µg/mL (≈ 1710 µM), an MIC (E. coli DH5α (pHSG398)) of no more than 0.25 µg/mL and an MIC [1] of 0.5 µg/mL (≈ 1.67 µM).

For `C[C@@H](O)[C@H]1C(=O)N2C(C(=O)O)=C(S[C@@H]3CN[C@H](C(=O)N(C)C)C3)[C@H](C)[C@H]12` [Meropenem], the MIC (P. aeruginosa NCGM1984) was greater than 1020 µg/mL, the MIC (E. coli DH5α (pHSG398)) was no more than 0.25 µg/mL and the MIC [1] was 0.5 µg/mL (≈ 1.3 µM).

`CO[C@@]1(NC(=O)C(C(=O)O)c2ccc(O)cc2)C(=O)N2C(C(=O)O)=C(CSc3nnnn3C)CO[C@@H]21` (stereo partly shown) [Moxalactam] was tested, and the MIC (P. aeruginosa NCGM1984) was greater than 1020 µg/mL, the MIC (E. coli DH5α (pHSG398)) was no more than 0.25 µg/mL and the MIC [1] was 64 µg/mL (≈ 123 µM).

With `CC1(C)S[C@@H]2[C@H](NC(=O)Cc3ccccc3)C(=O)N2[C@H]1C(=O)O` [Penicillin G] the MIC (P. aeruginosa NCGM1984) was greater than 1020 µg/mL, the MIC (E. coli DH5α (pHSG398)) was 32 µg/mL (≈ 95.7 µM) and the MIC [1] was 128 µg/mL (≈ 383 µM).

With IMP-1 (Serratia marcescens) the Km [2] was 22 ± 8 µM, the kcat [2] was 1.4 ± 0.2 s⁻¹ and the kcat/Km [2] was 68000 M⁻¹ s⁻¹. The Km [3] was 58 ± 14 µM, the kcat [3] was 6.9 ± 0.5 s⁻¹ and the kcat/Km [3] was 120000 M⁻¹ s⁻¹. The Km [4] was 73 ± 2 µM, the kcat [4] was 21 ± 1 s⁻¹ and the kcat/Km [4] was 290000 M⁻¹ s⁻¹. It also gave a Km [5] of 13 ± 2 µM, a kcat [5] of 2.8 ± 0.1 s⁻¹ and a kcat/Km [5] of 220000 M⁻¹ s⁻¹. For the same molecule, the Km [6] was 685 ± 99 µM, the kcat [6] was 94 ± 12 s⁻¹ and the kcat/Km [6] was 140000 M⁻¹ s⁻¹. The Km [7] was 34 ± 5 µM, the kcat [7] was 2.7 ± 0.1 s⁻¹ and the kcat/Km [7] was 80000 M⁻¹ s⁻¹. The Km [8] was 26 ± 1 µM, the kcat [8] was 0.68 ± 0.01 s⁻¹ and the kcat/Km [8] was 26000 M⁻¹ s⁻¹. For the same molecule, the Km [9] was 341 ± 17 µM, the kcat [9] was 16 ± 1 s⁻¹ and the kcat/Km [9] was 48000 M⁻¹ s⁻¹. For the same molecule, the Km [10] was 37 ± 12 µM, the kcat [10] was 2.3 ± 0.2 s⁻¹ and the kcat/Km [10] was 66000 M⁻¹ s⁻¹. For the same molecule, the Km [11] was 39 ± 8 µM, the kcat [11] was 4.8 ± 0.1 s⁻¹ and the kcat/Km [11] was 130000 M⁻¹ s⁻¹.
